Active and inactive are the calls of the source. No cut-off for these calls is given here.
Key:
[1] = biological target: T1, Prostaglandin G/H synthase 1 (Homo sapiens, UniProt P23219); test: Inhibition of cyclooxygenase-1 in Homo sapiens (human) whole blood assessed as thromboxane B2 production at 10 uM after 1 hr by enzyme immunoassay
[2] = biological target: T2, Prostaglandin G/H synthase 2 (Homo sapiens) (UniProt P35354); test: Inhibition of cyclooxygenase-2 in Homo sapiens (human) whole blood assessed as LPS-induced PGE2 production at 10 uM incubated 15 min prior to LPS challenge measured after 24 hr by enzyme immunoassay
T2 sequence (whole entry): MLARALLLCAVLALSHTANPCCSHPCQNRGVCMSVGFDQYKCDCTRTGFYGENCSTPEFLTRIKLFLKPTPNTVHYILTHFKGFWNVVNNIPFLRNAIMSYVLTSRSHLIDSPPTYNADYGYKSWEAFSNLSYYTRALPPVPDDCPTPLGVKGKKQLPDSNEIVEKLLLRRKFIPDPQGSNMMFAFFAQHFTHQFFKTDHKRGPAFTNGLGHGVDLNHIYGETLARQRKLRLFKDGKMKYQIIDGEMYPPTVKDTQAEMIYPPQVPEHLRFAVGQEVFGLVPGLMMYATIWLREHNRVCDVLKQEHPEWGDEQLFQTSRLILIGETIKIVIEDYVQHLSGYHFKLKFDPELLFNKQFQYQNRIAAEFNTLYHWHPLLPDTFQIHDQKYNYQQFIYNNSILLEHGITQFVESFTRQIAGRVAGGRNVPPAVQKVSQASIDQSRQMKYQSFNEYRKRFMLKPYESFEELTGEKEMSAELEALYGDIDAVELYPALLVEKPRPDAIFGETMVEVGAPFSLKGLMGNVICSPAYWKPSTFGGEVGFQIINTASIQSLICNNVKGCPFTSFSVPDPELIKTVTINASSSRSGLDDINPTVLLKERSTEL

[3] = biological target: T2, Prostaglandin G/H synthase 2 (Homo sapiens); test: Inhibition of cyclooxygenase-2 in Homo sapiens (human) whole blood assessed as LPS-induced PGE2 production at 100 uM incubated 15 min prior to LPS challenge measured after 24 hr by enzyme immunoassay
[4] = biological target: T1, Prostaglandin G/H synthase 1; test: Inhibition of cyclooxygenase-1 in Homo sapiens (human) whole blood assessed as thromboxane B2 production at 100 uM after 1 hr by enzyme immunoassay
[5] = biological target: T3, Prostaglandin G/H synthase 2 (Homo sapiens, UniProt P35354); test: Inhibition of Homo sapiens (human) cyclooxygenase-2
T3 sequence (P35354 whole entry): T2 sequence (whole entry)

[6] = biological target: T1, Prostaglandin G/H synthase 1; test: Inhibition of COX-1 (unknown origin)

T1 sequence (P23219 whole entry): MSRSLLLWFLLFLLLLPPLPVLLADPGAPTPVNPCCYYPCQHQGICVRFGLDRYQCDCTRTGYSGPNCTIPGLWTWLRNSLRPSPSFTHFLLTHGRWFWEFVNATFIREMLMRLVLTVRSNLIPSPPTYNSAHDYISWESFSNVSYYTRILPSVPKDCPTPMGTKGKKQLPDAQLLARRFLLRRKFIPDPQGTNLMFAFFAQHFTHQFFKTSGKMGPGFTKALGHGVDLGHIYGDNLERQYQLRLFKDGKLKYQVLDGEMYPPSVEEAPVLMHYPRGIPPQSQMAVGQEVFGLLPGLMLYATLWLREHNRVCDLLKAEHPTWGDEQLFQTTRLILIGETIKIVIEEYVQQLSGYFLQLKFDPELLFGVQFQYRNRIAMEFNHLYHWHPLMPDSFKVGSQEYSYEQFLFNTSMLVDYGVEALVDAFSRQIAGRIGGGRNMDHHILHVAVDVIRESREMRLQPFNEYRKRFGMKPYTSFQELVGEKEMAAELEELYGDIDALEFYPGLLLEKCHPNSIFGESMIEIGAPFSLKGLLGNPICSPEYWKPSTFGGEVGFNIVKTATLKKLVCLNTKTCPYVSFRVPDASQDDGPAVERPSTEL

SMILES	inhibition [1]	inhibition [2]	inhibition [3]	inhibition [4]	IC50 [5]	IC50 [6]
CCOc1ccc(-c2cc(N)cc(-c3ccc(OCC)cc3)c2)cc1	inactive	inactive	inactive	inactive		
Nc1cc(-c2ccccc2)cc(-c2ccccc2)c1	56%	68%	92%	98%		
Nc1cc(-c2ccc(Cl)cc2)cc(-c2ccc(Cl)cc2)c1	19%	76%	99%	93%		
Cc1ccc(-c2cc(N)cc(-c3ccccc3)c2)cc1	46%	49%	95%	96%		
Cc1c(CC(=O)O)cc(-c2ccccc2)cc1-c1ccccc1					120 µM	17 µM
COc1ccc(-c2cc(N)cc(-c3ccccc3)c2)cc1	inactive	inactive	78%	92%		
Cc1ccc(-c2cc(N)cc(-c3ccc(C)cc3)c2)cc1	27%	57%	86%	87%		
CS(=O)(=O)c1ccc(-c2cc(N)cc(-c3ccccc3)c2)cc1	23%	inactive	inactive	85%		
Nc1cc(-c2ccccc2)cc(-c2ccc(Cl)cc2)c1	63%	85%	98%	97%		
CCOc1ccc(-c2cc(N)cc(-c3ccccc3)c2)cc1	20%	inactive	inactive	88%		
CSc1ccc(-c2cc(N)cc(-c3ccccc3)c2)cc1	29%	inactive	inactive	92%		

From ChEMBL document CHEMBL3044614, “Synthesis and pharmacological evaluation of m-terphenyl amines as cyclooxygenase inhibitors” (Med Chem Res, 2007)
